Like-named read-outs stand apart in the source and are kept apart here.
Assays:
[1] = target: T1, human 5-hydroxytryptamine receptor 1A (5-HT1A) (Homo sapiens, UniProt P08908); test: Human 5-HT1A radioligand binding assay ([3H]-8-Hydroxy-DPAT)
T1 sequence (P08908 1-422): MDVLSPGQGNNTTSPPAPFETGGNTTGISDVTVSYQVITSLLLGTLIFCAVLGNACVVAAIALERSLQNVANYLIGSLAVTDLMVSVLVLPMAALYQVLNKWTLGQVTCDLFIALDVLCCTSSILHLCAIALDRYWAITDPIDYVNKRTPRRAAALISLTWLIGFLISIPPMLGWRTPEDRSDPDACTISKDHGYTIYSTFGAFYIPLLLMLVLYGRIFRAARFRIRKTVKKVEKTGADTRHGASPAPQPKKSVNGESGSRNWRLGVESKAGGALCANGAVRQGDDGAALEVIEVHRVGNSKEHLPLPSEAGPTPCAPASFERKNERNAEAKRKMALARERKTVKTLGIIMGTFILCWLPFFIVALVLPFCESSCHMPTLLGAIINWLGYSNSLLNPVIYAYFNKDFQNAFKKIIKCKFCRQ
Experimental: The objective of this study was to evaluate the binding properties of test compounds on 5-hydroxytryptamine receptor 1A (5-HT1A).
1. The assay buffer was prepared following Table 25 below.
2. 8 doses of reference and test compounds were prepared starting from 10 mM stock solution as required by 5-fold serial dilutions with 100% (v/v) DMSO.
3. UniFilter-96 GF/B plate was pretreated: • i. 50 μl/well of 0.5% (v/v) PEI was added to UniFilter-96 GF/B plates. The plates were sealed and incubated at 4° C. for 3 hrs. • ii. After incubation, the plates were washed 3 times with ice-cold wash buffer (50 mM Tris, pH7.4).
4. Assay plate was prepared: • i. Cell membrane was diluted with assay buffer and 100 μl/well was added to 96 round well plates to reach a concentration of 20 μg/well. • ii. 8 concentrations of reference or test compounds were prepared and 50 μl/well was added to 96 round deep well plates. • iii. [3H]-8-Hydroxy-DPAT was diluted with assay buffer to 2 nM (4× final concentration) and 50 μl/well was added to 96 round well plates.
5. The plate was centrifuged at 1000 rpm for 30 secs and then agitated at 600 rpm at room temperature for 5 min.
6. The plates were sealed and the plate was incubated at 27° C. for 90 min.
7. The incubation was stopped by vacuum filtration onto GF/B filter plates followed by 4 times washing with ice-cold wash buffer (50 mM Tris, pH7.4).
9. The filter plates were sealed and 40 μl/well of scintillation cocktail was added.
10. The plate was read by using a Microbeta^2 microplate counter.
1. For reference and test compounds, the results were expressed as % Inhibition, using the normalization equation: N=100−100×(U−C2)/(C1−C2), where U is the unknown value, C1 is the average of high controls, and C2 is the average of low controls.
2. The IC50 was determined by fitting percentage of inhibition as a […] of compound concentrations with Hill equation using XLfit.
1. The assay buffer was prepared following Table 55 below.
3. UniFilter-96 GF/B plate was pretreated: • i. 50 μL/well of 0.5% (v/v) PEI was added to UniFilter-96 GF/B plates. The plates were sealed and incubated at 4° C. for 3 hrs. • ii. After incubation, the plates were washed 3 times with ice-cold wash buffer (50 mM Tris, pH7.4).
4. Assay plate was prepared: • i. Cell membrane was diluted with assay buffer and 100 μl/well was added to 96 round well plates to reach a concentration of 20 μg/well. • ii. 8 concentrations of reference or test compounds were prepared and 50 μl/well was added to 96 round deep well plates. • iii. [3H]-8-Hydroxy-DPAT was diluted with assay buffer to 2 nM (4× final concentration) and 50 μL/well was added to 96 round well plates.

[2] = Plasma protein binding by equilibrium dialysis, mouse; assay type: in vitro ADME; details: for recovery at 6 h, 1 µM: CD-1, mouse, plasma; for fraction unbound at 6 h, 1 μM: CD-1, read-out: % Bound (converted)
Experimental: The final concentration of compound was 1 μM. The final concentration of DMSO was 0.5%. Ketoconazole was used as positive control in the assay.
The assay was performed in duplicate.
All calculations were carried out using Microsoft Excel. […] The percentages of bound compound were calculated as follows: […]
Ketoconazole was used as positive control in the assay.

human 5-HT2B receptor = human 5-HT2B receptor (Homo sapiens, UniProt P41595); test: Human 5-HT2B FLIPR calcium mobilization assay; assay type: cell-based; parameters: expressed in transfected cells; host or cells: HEK293; details: for Emax (% of serotonin): HEK293 cells, relative to maximum response of serotonin
Experimental: Compound potency (EC50) and efficacy (Max response) against the human 5-HT2B receptor in stably transfected HEK293 cells were determined in a calcium mobilization-based assay.
Cells were seeded in a total volume of 20 μL into white walled, 384-well microplates and incubated at 37° C. overnight. Prior to testing, cell plating media was exchanged with 20 μL of Dye Loading buffer (HBSS+20 mM HEPES containing 1× Dye, 1× Additive A, and 2.5 mM Probenecid). Plates were incubated at 37° C. for 45 mins followed by 15 mins at room temperature.
(§1) 10 μL of assay buffer (HBSS+20 mM HEPES) were added to cells. Intermediate dilution of sample stocks was performed to generate 4× samples in assay buffer. Assay plates and compound plates were loaded into the FLIPR instrument. 10 μL of sample was added using the FLIPR onboard robotics after 5 seconds of starting calcium measurement. A final assay vehicle concentration was 1%. The results are expressed as percent efficacy relative to the maximum response of the control ligand (serotonin) in Table 12.
Compound potency (EC50) and efficacy (Max response) against the human 5-HT2B receptor in stably transfected HE K293 cells was determined in a calcium mobilization-based assay.
as §1, with “HEPES) was” for “HEPES) were”, “of samples were” for “of sample was”, “5 secs” for “5 seconds”, “measurement. The” for “measurement. A”, “Table 62.” for “Table 12.”

[3] = mouse plasma, equilibrium dialysis, 37° C., 6 hours
[4] = calcium mobilization FLIPR, stably transfected HEK293 cells, read-out: EC50

human 5-HT2B receptor, sequence (P41595 whole entry): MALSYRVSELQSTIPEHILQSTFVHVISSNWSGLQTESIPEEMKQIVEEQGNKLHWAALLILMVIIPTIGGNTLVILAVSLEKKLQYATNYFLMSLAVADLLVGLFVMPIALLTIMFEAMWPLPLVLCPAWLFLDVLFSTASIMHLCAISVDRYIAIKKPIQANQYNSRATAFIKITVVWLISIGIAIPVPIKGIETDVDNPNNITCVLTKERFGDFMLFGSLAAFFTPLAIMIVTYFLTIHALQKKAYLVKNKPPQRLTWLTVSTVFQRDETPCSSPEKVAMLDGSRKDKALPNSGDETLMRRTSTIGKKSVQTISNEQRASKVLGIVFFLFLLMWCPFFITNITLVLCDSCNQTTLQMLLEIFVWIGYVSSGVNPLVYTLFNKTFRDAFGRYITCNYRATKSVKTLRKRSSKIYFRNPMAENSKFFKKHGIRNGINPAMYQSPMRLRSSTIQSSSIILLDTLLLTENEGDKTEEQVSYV

| SMILES | IC50 [1] [nM] | recovery at 6 h, 1 µM ([2]; Mouse plasma, 1 μM, equilibrium dialysis 6 hours) [%] | fraction unbound at 6 h, 1 μM ([2]; Mouse plasma, 1 μM, equilibrium dialysis 6 hours, 37° C.) | % Remaining @ 6 hours ([2]; Mouse plasma, 1 μM, 6 hours, 37° C.) [%] | EC50 (human 5-HT2B receptor) [nM] | Emax (% of serotonin) (human 5-HT2B receptor; calcium mobilization FLIPR) | recovery at 6 h, 1 µM [2, 3] [%] | fraction unbound at 6 h, 1 μM [2, 3] | % Remaining @ 6 hours ([2]; mouse plasma, 6 hours) [%] | EC50 (human 5-HT2B receptor; [4]) [nM] |
| --- | --- | --- | --- | --- | --- | --- | --- | --- | --- | --- |
| CSc1ccc2[nH]cc(C[C@H]3CCCN3C)c2c1 [(R) I-1, (R)-3-((1-Methylpyrrolidin-2-yl)methyl)-5-(methylthio)-1H-indole] | 3 | 113 | 0.521 | 112.85 | 2.74 | 62.94 % of serotonin | – | – | – | – |
| [2H]C([2H])(c1c[nH]c2ccc(OCCCCCN3C(=O)C4CCCCC4C3=O)cc12)[C@H]1CCCN1C([2H])([2H])[2H] (mixture of isomers) [Rac (R) I-248] | 8.3 | – | – | – | – | – | – | – | – | – |
| [2H]C([2H])(c1c[nH]c2ccc(OCCCCN3C(=O)c4ccccc4C3=O)cc12)[C@H]1CCCN1C([2H])([2H])[2H] [(R) I-244, (R)-2-(4-((3-((1-(Methyl-d3)pyrrolidin-2-yl)methyl-d2)-1H-indol-5-yl)oxy)butyl)isoindoline-1,3-dione] | 15 | – | – | – | – | 92.75 % of serotonin | 84.8 | 0.101 | 94.96 | 2.5 |
| [2H]C([2H])(c1c[nH]c2ccc(OCCCCCN3C(=O)c4ccccc4C3=O)cc12)[C@H]1CCCN1C([2H])([2H])[2H] [(R) I-245, (R)-2-(5-((3-((1-(Methyl-d3)pyrrolidin-2-yl)methyl-d2)-1H-indol-5-yl)oxy)pentyl)isoindoline-1,3-dione] | 5 | – | – | – | – | 53.91 % of serotonin | – | – | – | 11.2 |
| [2H]C([2H])(c1c[nH]c2ccc(OCCCCCN3C(=O)[C@H]4CCCC[C@H]4C3=O)cc12)[C@H]1CCCN1C([2H])([2H])[2H] [Cis (R) I-248, 2-(5-((3-(((R)-1-(Methyl-d3)pyrrolidin-2-yl)methyl-d2)-1H-indol-5-yl)oxy)pentyl)hexahydro-1H-isoindole-1,3(2H)-dione] | – | – | – | – | – | 69.85 % of serotonin | – | – | – | 24.9 |
| COCCN1CCC[C@@H]1Cc1c[nH]c2ccc(OC)cc12 [(R) I-98, (R)-5-Methoxy-3-((1-(2-methoxyethyl)pyrrolidin-2-yl)methyl)-1H-indole] | 5 | – | – | – | – | 52.7 % of serotonin | 96.4 | 0.632 | 103.70 | 2.88 |

Source: US12606543B2, “Indole derivatives as serotonergic agents useful for the treatment of disorders related thereto” (priority 2023, dated 2026)
